Laboratory results taken from article PMC9102038 (International Journal of Molecular Sciences, 2022).
Read-outs that look alike come from different tables or passages of the source.

Assays:
[1] = molecular target: T1, GAL4–human PPARα-LBD chimera (Homo sapiens, UniProt Q07869); experiment: GAL4–hPPARα-LBD dual luciferase transactivation assay in COS-7 cells
T1 sequence (Q07869 239-466 limits assumed): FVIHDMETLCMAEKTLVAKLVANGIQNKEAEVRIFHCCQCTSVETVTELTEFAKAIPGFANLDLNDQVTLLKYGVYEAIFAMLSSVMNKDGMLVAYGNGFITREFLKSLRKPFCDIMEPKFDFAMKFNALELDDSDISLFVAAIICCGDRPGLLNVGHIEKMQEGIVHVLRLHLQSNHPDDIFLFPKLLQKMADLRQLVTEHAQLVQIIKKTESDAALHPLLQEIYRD

[2] = molecular target: T2, PPARδ-LBD (Homo sapiens, UniProt Q03181); experiment: TR-FRET SRC1 coactivator peptide recruitment assay, PPARδ-LBD
T2 sequence (Q03181 170-441): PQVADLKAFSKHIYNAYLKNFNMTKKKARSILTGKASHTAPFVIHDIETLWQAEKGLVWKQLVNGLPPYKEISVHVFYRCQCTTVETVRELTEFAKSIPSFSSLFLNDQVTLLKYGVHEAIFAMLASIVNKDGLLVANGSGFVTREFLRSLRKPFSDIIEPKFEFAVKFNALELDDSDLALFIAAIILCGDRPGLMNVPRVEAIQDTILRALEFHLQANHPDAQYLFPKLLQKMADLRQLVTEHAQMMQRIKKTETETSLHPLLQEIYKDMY

[3] = molecular target: T2, PPARδ-LBD; experiment: Circular dichroism thermostability assay, PPARδ-LBD; type: binding; parameters: His-tag (pET28a) (N, cleaved yes); made in house; host or cells: E. coli Rosetta (DE3) pLysS; conditions: CD at 222 nm, 10 µM protein, versus 0.1% DMSO
Description: Ligand-induced alterations in Tm values at 222 nm were investigated as types of reflection of α-helical stable structures of PPARs because PPAR ligand binding induces stabilization of the LBP [23, 24].
PPARα/δ/γ-LBD proteins (10 µM) were incubated with different concentrations of ligands in buffer A. CD spectra were monitored within 200–260 nm at increasing temperatures from 30 °C to 70 °C (2 °C/min) using a J-1500 spectropolarimeter equipped with a PTC-510 thermal controller (JASCO, Tokyo, Japan). […] The thermal stability of PPARs was investigated by continuously monitoring the ellipticity changes at 222 nm during thermal denaturation, and a single-site sigmoidal dose-response curve fitting program (Prism 5) was used to obtain the melting temperature (Tm) that corresponds to the midpoint of the denaturation process. The ligand-induced increases in Tm values are defined as ∆Tm.

[4] = molecular target: T3, GAL4–human PPARδ-LBD chimera (Homo sapiens, UniProt Q03181); experiment: GAL4–hPPARδ-LBD dual luciferase transactivation assay in COS-7 cells; conditions: for efficacy, PPARδ-LBD-mediated transactivation: maximal effect of GW501516 (0.02 µM) as 100%
T3 sequence (Q03181 211-439 limits assumed): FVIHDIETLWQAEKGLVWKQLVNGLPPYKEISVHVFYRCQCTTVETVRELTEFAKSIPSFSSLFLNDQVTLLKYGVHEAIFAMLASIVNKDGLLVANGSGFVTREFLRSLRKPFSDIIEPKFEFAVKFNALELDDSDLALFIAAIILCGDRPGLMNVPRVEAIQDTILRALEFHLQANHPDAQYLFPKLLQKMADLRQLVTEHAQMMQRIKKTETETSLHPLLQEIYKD

[5] = molecular target: T4, GAL4–human PPARγ-LBD chimera (Homo sapiens, UniProt P37231); experiment: GAL4–hPPARγ-LBD dual luciferase transactivation assay in COS-7 cells; conditions: for efficacy, PPARγ-LBD-mediated transactivation: maximal effect of GW1929 (1 µM) as 100%
T4 sequence (P37231 238-503 limits assumed): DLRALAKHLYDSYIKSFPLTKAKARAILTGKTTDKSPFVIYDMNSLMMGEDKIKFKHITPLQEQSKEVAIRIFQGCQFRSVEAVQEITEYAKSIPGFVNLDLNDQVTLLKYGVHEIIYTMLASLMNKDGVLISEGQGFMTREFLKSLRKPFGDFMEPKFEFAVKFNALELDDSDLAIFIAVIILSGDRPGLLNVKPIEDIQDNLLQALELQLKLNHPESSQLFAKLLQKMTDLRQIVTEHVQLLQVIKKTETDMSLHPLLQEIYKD

[6] = molecular target: T5, human PPARα-LBD (Homo sapiens, UniProt Q07869); experiment: TR-FRET PGC1α coactivator peptide recruitment assay, PPARα-LBD
T5 sequence (Q07869 200-468): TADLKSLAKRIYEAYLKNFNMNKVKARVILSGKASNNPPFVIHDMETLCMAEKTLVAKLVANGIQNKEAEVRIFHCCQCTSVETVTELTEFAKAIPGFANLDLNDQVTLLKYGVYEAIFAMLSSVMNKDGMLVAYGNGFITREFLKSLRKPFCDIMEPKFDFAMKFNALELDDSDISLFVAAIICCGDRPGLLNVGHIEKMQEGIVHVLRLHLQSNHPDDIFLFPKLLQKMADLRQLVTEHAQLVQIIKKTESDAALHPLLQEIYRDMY

[7] = molecular target: T5, human PPARα-LBD; experiment: TR-FRET SRC1 coactivator peptide recruitment assay, PPARα-LBD
[8] = molecular target: T2, PPARδ-LBD; experiment: TR-FRET PGC1α coactivator peptide recruitment assay, PPARδ-LBD
[9] = system: PPARγ; parameters: method as in PMID 14982965; conditions: read-out: EC50, PPARγ transactivation, previous experiments; cited from earlier work
[10] = single dose (200 mg) of bezafibrate; read-out: maximal plasma concentration (Cmax); cited from earlier work
[11] = molecular target: T6, human PPARγ-LBD (Homo sapiens, UniProt P37231); experiment: TR-FRET PGC1α coactivator peptide recruitment assay, PPARγ-LBD
T6 sequence (P37231 203-477 isoform P37231-2): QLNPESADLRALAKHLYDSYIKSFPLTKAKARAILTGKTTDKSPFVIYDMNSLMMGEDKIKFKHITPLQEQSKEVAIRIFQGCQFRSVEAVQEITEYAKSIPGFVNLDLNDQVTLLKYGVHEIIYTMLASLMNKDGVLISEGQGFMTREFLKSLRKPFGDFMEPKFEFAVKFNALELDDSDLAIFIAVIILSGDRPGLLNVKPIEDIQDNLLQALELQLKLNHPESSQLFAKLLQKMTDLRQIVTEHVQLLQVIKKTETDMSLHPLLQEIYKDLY

[12] = molecular target: T6, human PPARγ-LBD; experiment: TR-FRET SRC1 coactivator peptide recruitment assay, PPARγ-LBD
[13] = system: PPARα; parameters: method as in PMID 14982965; conditions: read-out: EC50, PPARα transactivation, previous experiments; cited from earlier work
[14] = system: PPARδ; parameters: method as in PMID 14982965; conditions: read-out: EC50, PPARδ transactivation, previous experiments; cited from earlier work
[15] = COS-7 cells, maximal effect of GW7647 (0.1 µM) as 100%

For `CC(C)(Oc1ccc(C(=O)c2ccc(Cl)cc2)cc1)C(=O)O` [fenofibric acid], the EC50 [1] was 9.47 µM, the “efficacy, PPARα-LBD-mediated transactivation” value [1, 15] was 104% and the EC50 [2] was greater than 500 µM. The “effect on Tm of PPARδ-LBD (thermostability, in words)” value [3] was “increased thermostability”, the EC50 [4] was greater than 500 µM and the “PPARδ-LBD-mediated transactivation (in words)” value ([4]; COS-7 cells) was “did not induce transactivation”. The “efficacy, PPARγ-LBD-mediated transactivation” value ([5]; COS-7 cells) was 87.7%, the EC50 [6] was 20.9 µM and the EC50 [7] was 9.87 µM. The EC50 [8] was greater than 100 µM and the “PGC1α recruitment to PPARδ-LBD (in words)” value ([8]; TR-FRET) was “did not recruit PGC1α”.

For `CC(C)(Oc1ccc(CCNC(=O)c2ccc(Cl)cc2)cc1)C(=O)O` [bezafibrate], the “efficacy, PPARα-LBD-mediated transactivation” value [1] is given as 93.6%, the EC50 [2] is given as 31.8 µM and the EC50 [9] is given as greater than 100 µM. The Cmax [10] was 20.4 µM, the EC50 [4] was 86.7 µM and the “efficacy, PPARδ-LBD-mediated transactivation” value ([4]; COS-7 cells) was 15.2%. The EC50 [5] was 178 µM, the “efficacy, PPARγ-LBD-mediated transactivation” value ([5]; COS-7 cells) was 77.1% and the EC50 [11] was 48.9 µM. For the same molecule, the EC50 [12] was 76 µM, the EC50 [13] was 25 µM and the EC50 [14] was 95 µM.

For `CC[C@@H](Oc1cccc(CN(CCCOc2ccc(OC)cc2)c2nc3ccccc3o2)c1)C(=O)O` [pemafibrate], the “efficacy, PPARα-LBD-mediated transactivation” value [1, 15] was 107%, the EC50 [2] was 4.82 µM and the EC50 [4] was 1.39 µM. For the same molecule, the “efficacy, PPARδ-LBD-mediated transactivation” value ([4]; COS-7 cells) was 11.3%, the EC50 [5] was greater than 5 µM and the “efficacy, PPARγ-LBD-mediated transactivation” value ([5]; COS-7 cells) was 119%. For the same molecule, the EC50 [11] was 9.7 µM, the EC50 [12] was greater than 10 µM and the EC50 [8] was 6.11 µM.

For `CC(C)(Sc1ccc(CCN(CCCCC2CCCCC2)C(=O)NC2CCCCC2)cc1)C(=O)O` [GW7647], the “maximal effect, PPARα-LBD-mediated transactivation (× of the basal activity)” value ([1]; COS-7 cells, at 0.1 µM) was 5.73 ×, the “maximal effect, PGC1α recruitment to PPARα-LBD (× of the basal activity)” value ([6]; at 1 µM) was 8.87 × and the “maximal effect, SRC1 recruitment to PPARα-LBD (× of the basal activity)” value ([7]; at 1 µM) was 6.12 ×.

For GW1929, the “maximal effect, PPARγ-LBD-mediated transactivation (× of the basal activity)” value ([5]; COS-7 cells, at 1 µM) was 2.26 ×, the “maximal effect, PGC1α recruitment to PPARγ-LBD (× of the basal activity)” value ([11]; at 1 µM) was 5.80 × and the “maximal effect, SRC1 recruitment to PPARγ-LBD (× of the basal activity)” value ([12]; at 1 µM) was 9.26 ×.
